The results in this text go back to ChEMBL document CHEMBL1153668, “3-Pyridines as replacements for an isoxazole ring: The antirhinoviral activity of pyridine analogues related to disoxaril” (Bioorg Med Chem Lett, 1995).

In brackets after ≈: the same amount, converted by molar mass. Activity calls are given as the source filed them. The rule behind the calls is not given here.

In series [1] the test system is Human rhinovirus sp. Description: Antirhinoviral activity against Human Rhinovirus serotypes R1A, R1B, R2, R6, R14, R15, R21, R22, R25, R30, R41, R50, R67, R86 and R89; Inactive against HRV-6, 14, 86. Type of series: functional, organism-based.
The test system of series [2] is Human rhinovirus sp. Description: Antirhinoviral activity against Human Rhinovirus serotypes R1A, R1B, R2, R6, R14, R15, R21, R22, R25, R30, R41, R50, R67, R86 and R89. It is filed as functional.
A short description of series [3]: Partition coefficient (logP). It is filed as physicochemical. The conditions noted are these: octanol/water.
Series [4] has as its system Human rhinovirus sp. Description: Antirhinoviral activity against Human Rhinovirus serotypes R1A, R1B, R2, R6, R14, R15, R21, R22, R25, R30, R41, R50, R67, R86 and R89; Inactive against HRV-86. Type of series: functional, organism-based.
Series [5] has as its system Human rhinovirus sp. The series can be described thus: Antirhinoviral activity against Human Rhinovirus R2. Type of series: functional.
In series [6] the test system is Human rhinovirus sp. Description: Antirhinoviral activity against Human Rhinovirus R21. Type of series: functional.
Series [7] relates to Human rhinovirus sp. Description: Antirhinoviral activity against Human Rhinovirus R22. Type of series: functional.
Series [8] concerns Human rhinovirus sp. The series can be described thus: Antirhinoviral activity against Human Rhinovirus R25. It is filed as functional.
Series [9] concerns Human rhinovirus sp. The series can be described thus: Antirhinoviral activity against Human Rhinovirus R30. Type of series: functional.
Series [10] concerns Human rhinovirus sp. Description: Antirhinoviral activity against Human Rhinovirus R41; Not active. It is filed as functional, organism-based.
In series [11] the test system is Human rhinovirus sp. Description: Antirhinoviral activity against Human Rhinovirus R50. It is filed as functional.
Series [12] deals with Human rhinovirus sp. The series can be described thus: Antirhinoviral activity against Human Rhinovirus R67. It is filed as functional.
The subject of series [13] is Human rhinovirus sp. The series can be described thus: Antirhinoviral activity against Human Rhinovirus R6; Not active. Type of series: functional, organism-based.
Series [14] concerns Human rhinovirus sp. The series can be described thus: Antirhinoviral activity against Human Rhinovirus R89. Type of series: functional.
In series [15] the test system is Human rhinovirus sp. The series can be described thus: Antirhinoviral activity against Human Rhinovirus R14. Type of series: functional.
Series [16] has as its system Human rhinovirus sp. The series can be described thus: Antirhinoviral activity against Human Rhinovirus R15. It is filed as functional.
Series [17] deals with Human rhinovirus sp. The series can be described thus: Antirhinoviral activity against Human Rhinovirus R1A. Type of series: functional.
Series [18] has as its system Human rhinovirus sp. Description: Antirhinoviral activity against Human Rhinovirus R1B. Type of series: functional.
For series [19], the system named is Human rhinovirus sp. The series can be described thus: Antirhinoviral activity against Human Rhinovirus R86; Not active. It is filed as functional, organism-based.
For series [20], the system named is Human rhinovirus sp. The series can be described thus: Antirhinoviral activity against Human Rhinovirus serotypes R1A, R1B, R2, R6, R14, R15, R21, R22, R25, R30, R41, R50, R67, R86 and R89. It is filed as functional.
The subject of series [21] is Human rhinovirus sp. Description: Antirhinoviral activity against Human Rhinovirus R86. Type of series: functional.
Series [22] deals with Human rhinovirus sp. The series can be described thus: Antirhinoviral activity against Human Rhinovirus R14; Not active. Type of series: functional, organism-based.
For series [23], the system named is Human rhinovirus sp. Description: Antirhinoviral activity against Human Rhinovirus R41. It is filed as functional.
For series [24], the system named is Human rhinovirus sp. Description: Antirhinoviral activity against Human Rhinovirus R6. It is filed as functional.

`Cc1cc(-c2nnn(C)n2)cc(C)c1OCCCc1cccnc1`: in the series on Human rhinovirus sp. [1], the Mean activity entry is “inactive”.

With `Cc1cc(CCCOc2c(C)cc(-c3nnn(C)n3)cc2C)on1`, the Mean activity in the series with Human rhinovirus sp. [2] was 0.73 µM.

Broadly, the logP is a log measure of how a compound divides between an organic and an aqueous phase. Low values mean a more hydrophilic compound, high ones a more lipophilic compound. Consider `Cc1noc(-c2cc(C)c(OCCCc3cccnc3)c(C)c2)n1`, for which the logP in series [3] came to 3.3. Also, in the series on Human rhinovirus sp. [4], the Mean activity entry was “inactive”.

On to `Cc1cc(-c2nnn(C)n2)cc(C)c1OCCCCCc1ccccn1`, for which the MIC against Human rhinovirus sp. [5] amounted to 0.34 µM (≈ 0.119 µg/mL); in the series on Human rhinovirus sp. [6] it was 0.05 µM (≈ 0.0176 µg/mL); with Human rhinovirus sp. [7], 0.21 µM (≈ 0.0738 µg/mL); against Human rhinovirus sp. [8], 0.08 µM (≈ 0.0281 µg/mL); against Human rhinovirus sp. [9] it was 0.25 µM (≈ 0.0879 µg/mL); against Human rhinovirus sp. [11] it was 0.36 µM (≈ 0.127 µg/mL). The MIC turned out to be 1.19 µM (≈ 0.418 µg/mL) against Human rhinovirus sp. [12]; 0.06 µM (≈ 0.0211 µg/mL) in the series on Human rhinovirus sp. [14]; 3.84 µM (≈ 1.35 µg/mL) in the series on Human rhinovirus sp. [15]; 1.91 µM (≈ 0.671 µg/mL) in the series with Human rhinovirus sp. [16]; 0.66 µM (≈ 0.232 µg/mL) in the series on Human rhinovirus sp. [17]; 0.11 µM (≈ 0.0387 µg/mL) against Human rhinovirus sp. [18]. For the same compound, the MIC result in the series on Human rhinovirus sp. [10], in the series on Human rhinovirus sp. [13] and in the series on Human rhinovirus sp. [19] was “inactive” throughout.

Compound `Cc1ccc(CCCOc2c(C)cc(-c3nc(C)no3)cc2C)cn1` returned a lipophilicity (logP) in series [3] of 3.8. For the same compound, the Mean activity in the series with Human rhinovirus sp. [2] came to 0.25 µM.

Turning to `Cc1cc(CCCOc2c(C)cc(-c3nc(C)no3)cc2C)on1`, in series [3], the logP stood at 3.2. This compound gave a Mean activity in the series with Human rhinovirus sp. [20] of 0.22 µM.

For `Cc1cc(-c2nnn(C)n2)cc(C)c1OCCCCCc1ccncc1`, the MIC against Human rhinovirus sp. [5] came out at 0.26 µM (≈ 0.0914 µg/mL); in the series on Human rhinovirus sp. [6], 0.08 µM (≈ 0.0281 µg/mL); against Human rhinovirus sp. [7] it was 0.2 µM (≈ 0.0703 µg/mL); in the series on Human rhinovirus sp. [8], 0.11 µM (≈ 0.0387 µg/mL); in the series on Human rhinovirus sp. [9], 0.36 µM (≈ 0.127 µg/mL); against Human rhinovirus sp. [11], 0.36 µM (≈ 0.127 µg/mL). For the same compound, the MIC in the series with Human rhinovirus sp. [12] worked out at 0.51 µM (≈ 0.179 µg/mL); against Human rhinovirus sp. [21], 0.43 µM (≈ 0.151 µg/mL); against Human rhinovirus sp. [14] it was 0.07 µM (≈ 0.0246 µg/mL); with Human rhinovirus sp. [16] it was 2.13 µM (≈ 0.749 µg/mL); in the series on Human rhinovirus sp. [17] it was 0.68 µM (≈ 0.239 µg/mL); against Human rhinovirus sp. [18], 0.27 µM (≈ 0.0949 µg/mL). Moreover, the MIC entry in the series with Human rhinovirus sp. [10], with Human rhinovirus sp. [13] and with Human rhinovirus sp. [22] was “inactive” each time.

Regarding `Cc1cc(CCCCCOc2c(C)cc(-c3nnn(C)n3)cc2C)on1`, the MIC with Human rhinovirus sp. [5] came out at 0.04 µM (≈ 0.0142 µg/mL); in the series on Human rhinovirus sp. [6] it was 0.04 µM (≈ 0.0142 µg/mL); against Human rhinovirus sp. [7], 0.08 µM (≈ 0.0284 µg/mL); against Human rhinovirus sp. [8], 0.31 µM (≈ 0.11 µg/mL); against Human rhinovirus sp. [9], 0.11 µM (≈ 0.0391 µg/mL); in the series with Human rhinovirus sp. [23], 1.43 µM (≈ 0.508 µg/mL). Moreover, the MIC against Human rhinovirus sp. [11] is 0.23 µM (≈ 0.0818 µg/mL); against Human rhinovirus sp. [24] it was 0.98 µM (≈ 0.348 µg/mL); against Human rhinovirus sp. [12], 0.35 µM (≈ 0.124 µg/mL); in the series on Human rhinovirus sp. [21] it was 0.84 µM (≈ 0.299 µg/mL); in the series on Human rhinovirus sp. [14] it was 0.04 µM (≈ 0.0142 µg/mL); in the series with Human rhinovirus sp. [15], 0.62 µM (≈ 0.22 µg/mL). The MIC in the series on Human rhinovirus sp. [16] came to 0.77 µM (≈ 0.274 µg/mL); in the series on Human rhinovirus sp. [17], 0.42 µM (≈ 0.149 µg/mL); in the series with Human rhinovirus sp. [18], 0.1 µM (≈ 0.0355 µg/mL).

Turning to `Cc1cc(-c2nnn(C)n2)cc(C)c1OCCCCCc1cccnc1`, the MIC is 0.2 µM (≈ 0.0703 µg/mL) against Human rhinovirus sp. [5]; 0.03 µM (≈ 0.0105 µg/mL) with Human rhinovirus sp. [6]; 0.17 µM (≈ 0.0597 µg/mL) against Human rhinovirus sp. [7]; 0.04 µM (≈ 0.0141 µg/mL) in the series on Human rhinovirus sp. [8]; 0.17 µM (≈ 0.0597 µg/mL) with Human rhinovirus sp. [9]; 2.16 µM (≈ 0.759 µg/mL) against Human rhinovirus sp. [23]. In addition, the MIC in the series on Human rhinovirus sp. [11] is 2.28 µM (≈ 0.801 µg/mL); in the series on Human rhinovirus sp. [24], 0.82 µM (≈ 0.288 µg/mL); against Human rhinovirus sp. [12], 0.37 µM (≈ 0.13 µg/mL); against Human rhinovirus sp. [21], 1.08 µM (≈ 0.38 µg/mL); in the series with Human rhinovirus sp. [14] it was 0.03 µM (≈ 0.0105 µg/mL); in the series on Human rhinovirus sp. [15], 1.05 µM (≈ 0.369 µg/mL). In addition, the MIC in the series with Human rhinovirus sp. [16] is 1.25 µM (≈ 0.439 µg/mL); against Human rhinovirus sp. [17] it was 0.28 µM (≈ 0.0984 µg/mL); in the series on Human rhinovirus sp. [18], 0.1 µM (≈ 0.0351 µg/mL).

In the series with Human rhinovirus sp. [2], `Cc1ccc(CCCOc2c(C)cc(-c3nnn(C)n3)cc2C)cn1` returned a Mean activity of 0.54 µM.
